Structures can show the parent of a compound that is named as a salt.
How the values were obtained:
activated ROCK II = target: T1, activated ROCK II (Rattus norvegicus, UniProt Q62868); test: Test for Evaluation of Inhibiting Activity to Rho Kinase; assay type: biochemical; settings: S6 Kinase Substrate Peptide, [γ-32P]ATP, 30° C. for 15 minutes, Ki=IC50/(1+S/Km)
T1 construct: purchased Upstate Biotechnology 14-338
Protocol: In order to find the utility of the present invention compound, a Rho kinase inhibiting activity of the present invention compound was evaluated. The details thereof will be illustrated under the item of “Pharmacological Test (Test for Evaluation of Rho Kinase Inhibiting Activity)” in the Examples which will be mentioned later. The evaluation of the Rho kinase inhibiting activity of the present invention compound was carried out in accordance with the methods mentioned in J. Biol. Chem., 274, 32418 (1999) by Kaibuchi, et al. and mentioned in the instruction manual for use attached to the commercially available activated ROCK II [Upstate Biotechnology, Catalog No. 14-338 (5 units/50 μl)].
A. Test for Evaluation of Inhibiting Activity to Rho Kinase
In order to test the usefulness of the compounds of the present invention as a Rho kinase inhibitor, inhibiting activities of the compounds of the present invention to Rho kinase were evaluated and investigated in accordance with the methods of Kaibuchi, et al. mentioned in J. Biol. Chem., 274, 32418, 1999 and also with the methods mentioned in the instruction manual for use attached to commercially available activated ROCK II [Upstate Biotechnology, Catalog No. 14-338, (5 unite/50 μl)]. With regard to the test compounds, the compounds 5-1 to 5-73 (except the compounds 5-2, 5-9, 5-18, 5-37 and 5-38) were used.
A buffer was prepared so as to make tris(hydroxymethyl)aminomethane (Tris) (pH 7.5), 50 mM, ethyleneglycol bis(β-aminoethyl ether)-N,N,N′,N′-tetraacetic acid (EGTA), 2 mM, ethylenediaminetetraacetic acid (EDTA), 1 mM, magnesium chloride (MgCl2) 5 mM, β-glycerol phosphate, 5 mM, and dithiothreitol (DTT), 2 mM, by mixing them.
A mixed liquid of a 10 mM ATP solution with a commercially available [γ-^32P]ATP solution [NEN, Code No. NEG-002A] was diluted with the buffer to prepare a 300 μM ATP [γ-^32P]ATP solution.
A Commercially Available Activated ROCK II [Upstate Biotechnology, Catalog No. 14-338, (5 Units/50 μl)] was diluted to a concentration of 1/100 with the buffer to prepare an activated ROCK II solution.
A S6 Kinase Substrate Peptide [Upstate Biotechnology, Catalog No. 12-124,] (2 mg) was dissolved in distilled water to prepare a 1 mM substrate solution.
A test compound was dissolved in 10% aqueous dimethyl sulfoxide solution.
1) The test compound solution is placed in a microtube.
2) The 300 μM ATP [γ-^32P]ATP solution is added to the microtube followed by cooling to 4° C.
3) After that, a permanently activated ROCK II solution, 1 mM substrate solution and buffer are added to each microtube in that order, and the whole is mixed and cooled again at 4° C.
4) The microtube is placed in an incubator (30° C.) and the mixture is subjected to reaction for 15 minutes.
5) After cooling to 4° C., a 250 mM phosphoric acid solution (5 μl) is added to each microtube to stop the reaction.
6) The reaction solution (30 μl) is taken out from each microtube and spotted on a filter paper (Whatman P81) so that the reaction product (phosphorylated substrate) is adsorbed to the filter paper.
7) The filter paper is transferred to a beaker in which a 75 mM phosphoric acid solution is placed and shaken for 5 minutes so that unreacted [γ-^32P]AfP is washed out. The washing operation as such is carried out four times.
8) After that, the filter paper is dipped in ethanol to dehydrate and energy amount (radioactivity) of the reaction product adsorbed to the filter paper is measured with a liquid scintillation counter.
The IC50 value was calculated by an XL-fit (IDBS).
The Ki value is calculated by the following formula. S is an ATP concentration contained in the reaction solution while Km is a Michaelis-Menten constant. Ki=IC50/(1+S/Km)

T1 sequence (Q62868 11-550 limits assumed): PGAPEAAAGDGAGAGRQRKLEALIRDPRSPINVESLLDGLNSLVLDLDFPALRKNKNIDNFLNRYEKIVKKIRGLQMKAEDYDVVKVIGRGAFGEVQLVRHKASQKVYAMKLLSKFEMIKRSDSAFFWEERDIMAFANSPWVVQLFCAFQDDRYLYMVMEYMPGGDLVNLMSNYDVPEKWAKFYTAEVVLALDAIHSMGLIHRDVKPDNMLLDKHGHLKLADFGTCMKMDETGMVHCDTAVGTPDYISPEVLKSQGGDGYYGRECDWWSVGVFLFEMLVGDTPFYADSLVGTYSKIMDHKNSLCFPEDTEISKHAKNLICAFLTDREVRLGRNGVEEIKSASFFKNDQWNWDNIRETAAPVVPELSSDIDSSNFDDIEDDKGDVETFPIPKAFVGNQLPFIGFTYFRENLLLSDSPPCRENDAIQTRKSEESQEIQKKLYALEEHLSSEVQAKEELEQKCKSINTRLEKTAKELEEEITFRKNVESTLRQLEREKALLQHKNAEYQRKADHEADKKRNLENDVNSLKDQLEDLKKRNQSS

melting point	Ki (activated ROCK II) [nM]	Structure (SMILES)
247 to 250 °C	–	CC(=O)n1ncc2cc(-c3ccc(C(C)(C)N)cc3)ccc21 (as salt: hydrochloride) [Compound 5-2, 1-Acetyl-5-[4-(1-amino-1-methylethyl)phenyl]-1H-indazole dihydrochloride]
271 to 273 °C (dec.)	–	CC(C)(N)c1ccc(-c2ccc3[nH]ncc3c2)nc1 (as salt: hydrochloride) [Compound 5-3, 5-[5-(1-Amino-1-methylethyl)pyridin-2-yl]-1H-indazole trihydrochloride]
255 to 261 °C (dec.)	–	CC(C)(N)c1ccc(-c2ccc3[nH]ncc3c2[N+](=O)[O-])cc1 (as salt: hydrochloride) [Compound 5-4, 5-[4-(1-Amino-1-methylethyl)phenyl]-4-nitro-1H-indazole monohydrochloride]
228 to 235 °C (dec.)	–	CC(C)(N)c1ccc(-c2ccc3[nH]ncc3c2N)cc1 (as salt: hydrochloride) [Compound 5-5, 4-Amino-5-[4-(1-amino-1-methylethyl)phenyl]-1H-indazole trihydrochloride]
185 to 192 °C (dec.)	–	CC(C)(N)c1ccc(-c2ccc3[nH]ncc3c2NCc2ccccc2)cc1 (as salt: hydrochloride) [Compound 5-6, 5-[4-(1-Amino-1-methylethyl)phenyl]-4-benzylamino-1H-indazole dihydrochloride]
202 to 206 °C (dec.)	–	CNc1c(-c2ccc(C(C)(C)N)cc2)ccc2[nH]ncc12 (as salt: hydrochloride) [Compound 5-7, 5-[4-(1-Amino-1-methylethyl)phenyl]-4-methylamino-1H-indazole trihydrochloride]
264 to 267 °C (dec.)	–	COC(=O)c1n[nH]c2ccc(-c3ccc(C(C)(C)N)cc3)cc12 (as salt: hydrochloride) [Compound 5-8, 5-[4-(1-Amino-1-methylethyl)phenyl]-3-methoxy-carbonyl-1H-indazole dihydrochloride]
274 to 280 °C (dec.)	–	CC(C)(N)c1ccc(-c2ccc3[nH]nc(C(=O)O)c3c2)cc1 (as salt: hydrochloride) [Compound 5-9, 5-[4-(1-Amino-1-methylethyl)phenyl]-3-carboxy-1H-indazole monohydrochloride]
258 to 261 °C (dec.)	–	CC(C)(N)c1ccc(-c2ccc3[nH]nc(C(N)=O)c3c2)cc1 (as salt: hydrochloride) [Compound 5-10, 3-Aminocarbonyl-5-[4-(1-amino-1-methylethyl)phenyl]-1H-indazole monohydrochloride]
220 to 222 °C (dec.)	–	CC(C)(N)c1ccc(-c2ccc3[nH]nc(N)c3c2)cc1 (as salt: hydrochloride) [Compound 5-11, 3-Amino-5-[4-(1-amino-1-methylethyl)phenyl]-1H-indazole trihydrochloride]
224 to 227 °C (dec.)	–	CC(C)(N)c1ccc(-c2ccc3[nH]nc(C#N)c3c2)cc1 (as salt: hydrochloride) [Compound 5-13, 5-[4-(1-Amino-1-methylethyl)phenyl]-3-cyano-1H-indazole dihydrochloride]
238 to 242 °C (dec.)	–	CC(C)(N)c1ccc(-c2ccc3[nH]nc(CO)c3c2)cc1 (as salt: hydrochloride) [Compound 5-14, 5-[4-(1-Amino-1-methylethyl)phenyl]-3-hydroxymethyl-1H-indazole dihydrochloride]
219 to 224 °C (dec.)	–	CN(C)c1c(-c2ccc(C(C)(C)N)cc2)ccc2[nH]ncc12 (as salt: hydrochloride) [Compound 5-16, 5-[4-(1-Amino-1-methylethyl)phenyl]-4-dimethylamino-1H-indazole trihydrochloride]
218 to 221 °C	–	CC(=O)Nc1c(-c2ccc(C(C)(C)N)cc2)ccc2[nH]ncc12 (as salt: hydrochloride) [Compound 5-18, 4-(N-Acetylamino)-5-[4-(1-amino-1-methylethyl)-phenyl]-1H-indazole dihydrochloride]
269 to 274 °C (dec.)	–	NCc1ccc(-c2ccc3[nH]ncc3c2[N+](=O)[O-])cc1 (as salt: hydrochloride) [Compound 5-19, 5-[4-(Aminomethyl)phenyl]-4-nitro-1H-indazole dihydrochloride]
234 to 237 °C	–	Nc1c(-c2ccc(C3(N)CCCC3)cc2)ccc2[nH]ncc12 (as salt: hydrochloride) [Compound 5-21, 4-Amino-5-[4-(1-aminocyclopentyl)phenyl]-1H-indazole dihydrochloride]
197 to 199 °C (dec.)	–	CCC(N)(CC)c1ccc(-c2ccc3[nH]ncc3c2N)cc1 (as salt: hydrochloride) [Compound 5-22, 4-Araino-5-[4-(1-amino-1-ethylpropyl)phenyl]-1H-indazole trihydrochloride]
188 to 192 °C (dec.)	–	CN(C)c1c(-c2ccc(CN)cc2)ccc2[nH]ncc12 (as salt: hydrochloride) [Compound 5-23, 5-[4-(Aminomethyl)phenyl]-4-dimethylamino-1H-indazole trihydrochloride]
175 to 178 °C (dec.)	–	CN(C)c1c(-c2ccc(C3(N)CCCC3)cc2)ccc2[nH]ncc12 (as salt: hydrochloride) [Compound 5-24, 5-[4-(1-Aminocyclopentyl)phenyl]-4-dimethylamino-1H-indazole trihydrochloride]
180 to 182 °C (dec.)	–	CC(N)c1ccc(-c2ccc3[nH]ncc3c2N(C)C)cc1 (centres unmarked) (as salt: hydrochloride) [Compound 5-26, 5-[4-(1-Aminoethyl)phenyl]-4-dimethylamino-1H-indazole trihydrochloride]
179 to 182 °C	–	CC(C)(N)c1cnc(-c2ccc3[nH]ncc3c2)c(Cl)c1 (as salt: hydrochloride) [Compound 5-27, 5-[5-(1-Amino-1-methylethyl)-3-chloropyridin-2-yl]-1H-indazole trihydrochloride]
247 to 255 °C (dec.)	–	CCc1c(-c2ccc(C(C)(C)N)cn2)ccc2[nH]ncc12 (as salt: hydrochloride) [Compound 5-28, 5-[5-(1-Amino-1-methylethyl)pyridin-2-yl]-4-ethyl-1H-indazole trihydrochloride]
209 to 213 °C (dec.)	–	CC(C)(N)c1ccc(-c2ccc3[nH]ncc3c2C2CC2)nc1 (as salt: hydrochloride) [Compound 5-29, 5-[5-(1-Amino-1-methylethyl)pyridin-2-yl]-4-cyclo-propyl-1H-indazole trihydrochloride]
162 to 166 °C (dec.)	–	C=Cc1c(-c2ccc(C(C)(C)N)cn2)ccc2[nH]ncc12 (as salt: hydrochloride) [Compound 5-30, 5-[5-(1-Amino-1-methylethyl)pyridin-2-yl]-4-vinyl-1H-indazole trihydrochloride]
–	34	CCC(N)(CC)c1ccc(-c2ccc3[nH]ncc3c2OC2CC2)nc1 [Compound 5-71, 5-[5-(1-Amino-1-ethylpropyl)pyridin-2-yl]-4-cyclo-propyloxy-1H-indazole trihydrochloride]
–	13	CCC(N)(CC)c1ccc(-c2ccc3[nH]ncc3c2OC(F)F)cc1 [Compound 5-72, 5-[4-(1-Amino-1-ethylpropyl)phenyl]-4-difluoro-methoxy-1H-indazole dihydrochloride]
